The values below are quoted from earlier work in US20160354348A1, “METHODS FOR PROPHYLATIC APPETITE SUPPRESSION” (Orexigen Therapeutics, Inc., priority 2005, published 2016).

Where two headings read alike, the source gives them in different places.

The conditions of data set [1]: 20-25° C.
The conditions of data set [2]: Colosimo & De Michele 1999.

Consider `NS(=O)(=O)Cc1noc2ccccc12` [zonisamide, 1,2-benzisoxazole-3-methanesulfonamide], for which the “Half-life (t1/2) in plasma” value is “about 63 hours”. Further, the t1/2 in erythrocytes result (erythrocytes) is on record as “about 105 hours”. Moreover, the Protein bound (in vivo) was 40%. The “Half-life (t1/2) in plasma” value (listed as Zonisamide) was 63 to 69 h. In addition, the “Solubility in aqueous acid” value in data set [1] is given as “about 200 mg/ml”.

Consider `N[C@@H](Cc1ccc(O)c(O)c1)C(=O)O` [levodopa], for which the “Elimination half-life (T1/2)” value in data set [2] is on record as “about 1.5 hours”.
